Assay results: patent publication US8753644B2, “Grass peptides for vaccine” (Circassia Limited, priority 2009, dated 2014)
No end group written: not given here.

Tested on: peripheral blood mononuclear cells (PBMCs) from grass allergic individuals
Assay: In vitro T cell cytokine release assay (IFN-γ, IL-10, IL-13) in PBMC cultures
Assay type: cell-based, human
Conditions: single peptide; group of 28 subjects

Substance	≧9/28 +ve for one or more cytokine?
Bio04: Group 5 peptide of Table 2, sequence only in drawing (TALKKAVTAMSEAEKEA)	Yes
Bio05: Group 5 peptide of Table 2, sequence only in drawing (NDKFTVFESAFNKALNE)	Yes

Same assay, conditions: single peptide; number of 28 grass allergic subjects positive (reading > four times control well)

Substance	IFN-γ +ve/28	IL-10 +ve/28	IL-13 +ve/28
Bio04: Group 5 peptide of Table 2, sequence only in drawing (TALKKAVTAMSEAEKEA)	12 +ve/28	8 +ve/28	5 +ve/28
Bio05: Group 5 peptide of Table 2, sequence only in drawing (NDKFTVFESAFNKALNE)	11 +ve/28	1 +ve/28	5 +ve/28

Tested on: not listed separately
Assay: physchem
Conditions: not given

solubility [µg/mL]	Substance
> 20000	SGKAFGAMAKKGQED [Ber01, SGKAFGAMAKKGQED]

Tested on: not listed separately
Assay: Solubility of peptides
Conditions: not given

Substance	solubility [µg/mL]
KFIPTLVAAVKQAYAAKQ [Bio03A]	> 20000
KSSWGAIWRIDPKKPLK [Ber02C]	> 20000
KYDAYVATLTEALR [Bio02A]	> 20000
FIPMKSSWGA [Ber02]	> 20000
KDSDEFIPMKSSWGAIWR [Ber02B]	> 20000

Results, then the substance that gave them:

solubility [µg/mL]	Substance
10000	KKPEVKYAVFEAALTKAIT [Rye09B2]
10000	KPEVKYAVFEAALTKAIT [Rye09B1]
5000	PEVKYAVFEAALTKAIT [Rye09B]
2000	WGAIWRIDTPDKL [Tim04A]
> 20000	LKKAVTAMSEAEK [Bio04A]
10000	NAGFKAAVAAAANAPPK [Rye05C]
